From patent US20060110370A1, “Treatments for reduction of cytotoxicity and viral contamination of implantable medical devices” (priority 2004, published 2006)

Tests used:
[1] = test system: Amphotropic Murine Leukemia Virus (A-MuLV); assay: Viral inactivation of spiked porcine valve and pericardium, A-MuLV; format: cell-based; details: 0.2% glutaraldehyde at 47 days; average for porcine valve and pericardium material
[2] = test system: Influenza A Virus (Inf A); assay: Viral inactivation of spiked porcine valve and pericardium, Inf A; format: cell-based; details: 0.2% glutaraldehyde at 47 days; average for porcine valve and pericardium material
Porcine Parvovirus (PPV) = assay: Viral inactivation of spiked porcine valve and pericardium, PPV; format: cell-based; details: 0.2% glutaraldehyde at 47 days; average for porcine valve and pericardium material
Pseudorabies Virus (PrV) = format: cell-based; details: 0.2% glutaraldehyde at 47 days; average for porcine valve and pericardium material
Reovirus Type 3 (REO-3) = assay: Viral inactivation of spiked porcine valve and pericardium, REO-3; format: cell-based; details: 0.2% glutaraldehyde at 47 days; average for porcine valve and pericardium material
[3] = test system: five viruses (A-MuLV, Inf A, PPV, PrV, REO-3); assay: Viral inactivation, panel of five viruses (remaining virus); format: cell-based; details: after 47 days of exposure
[4] = Calcification after subcutaneous implantation in rats (Examples 2 and 3), bovine pericardium; format: in vivo, Sprague-Dawley rats; details: retrieved after 60 days of implantation, about 16 hours treatment
Method: In a class 100 laminar flow bench, pieces of glutaraldehyde-fixed bovine pericardium tissue (Mitroflow Inc.; Richmond, British Columbia, Canada) porcine cusp tissue (Labcor; Belo Horizonte, Brazil) and porcine wall tissue (Labcor Inc.) were transferred into sterile tubes containing 1,2-octanediol solutions (5% 1,2-octanediol (Aldrich Chemical), 40% ethanol and 55% 10 mM HEPES buffer). The tubes were transferred to a 37° C. incubator and maintained at 37° C. with gentle agitation for about 16 hours. After the treatment, the samples were transferred to solutions comprising 22% ethanol in 10 mM HEPES and stored for 14 days at 4° C. The final tissue to volume ratio for all treatments was approximately 27 ml/g. For N-methyl pyrolidinone (NMP) treatments, pieces of glutaraldehyde-fixed bovine pericardium tissue (Mitroflow Inc.), porcine cusp tissue (Labcor Inc.) and porcine wall tissue (Labcor Inc.) were transferred into sterile tubes containing NMP. The tubes were incubated at room temperature for about 16 hours with occasional manual agitation. […] Seven rats per treatment group were analyzed. […] After retrieval, the samples were analyzed for their calcium and phosphorus contents using a standard ICP methodology. […] Seven rats per treatment group were analyzed. […] After retrieval, the samples were analyzed for their calcium and phosphorus contents by ICP.

[5] = Calcification after subcutaneous implantation in rats (Example 2), porcine cusp; format: in vivo, Sprague-Dawley rats; details: retrieved after 60 days of implantation, about 16 hours treatment
Method: (§1) In a class 100 laminar flow bench, pieces of glutaraldehyde-fixed bovine pericardium tissue (Mitroflow Inc.; Richmond, British Columbia, Canada) porcine cusp tissue (Labcor; Belo Horizonte, Brazil) and porcine wall tissue (Labcor Inc.) were transferred into sterile tubes containing 1,2-octanediol solutions (5% 1,2-octanediol (Aldrich Chemical), 40% ethanol and 55% 10 mM HEPES buffer). The tubes were transferred to a 37° C. incubator and maintained at 37° C. with gentle agitation for about 16 hours. After the treatment, the samples were transferred to solutions comprising 22% ethanol in 10 mM HEPES and stored for 14 days at 4° C. The final tissue to volume ratio for all treatments was approximately 27 ml/g. For N-methyl pyrolidinone (NMP) treatments, pieces of glutaraldehyde-fixed bovine pericardium tissue (Mitroflow Inc.), porcine cusp tissue (Labcor Inc.) and porcine wall tissue (Labcor Inc.) were transferred into sterile tubes containing NMP. The tubes were incubated at room temperature for about 16 hours with occasional manual agitation. After the treatment, the tissue samples were transferred to 22% HEPES-buffered ethanol solutions and stored for 14 days at 4° C. […] Seven rats per treatment group were analyzed. […] After retrieval, the samples were analyzed for their calcium and phosphorus contents using a standard ICP methodology.

[6] = Calcification after subcutaneous implantation in rats (Example 2), porcine wall; format: in vivo, Sprague-Dawley rats; details: retrieved after 60 days of implantation, about 16 hours treatment
Method: as §1

| Compound | Viral log reduction, A-MuLV [1] | Viral log reduction, Inf A [2] | Viral log reduction, PPV (Porcine Parvovirus (PPV)) | Viral log reduction, PrV (Pseudorabies Virus (PrV)) | Viral log reduction, REO-3 (Reovirus Type 3 (REO-3)) | viruses present on porcine valves or pericardium materials [3] | Calcuim (μg/mg tissue) [4] | Phosphorus (μg/mg tissue) [4] | Calcuim (μg/mg tissue) [5] | Phosphorus (μg/mg tissue) [5] | Calcuim (μg/mg tissue) [6] | Phosphorus (μg/mg tissue) [6] |
| --- | --- | --- | --- | --- | --- | --- | --- | --- | --- | --- | --- | --- |
| O=CCCCC=O [Glutaraldehyde, glutaraldehyde] | 4.15 log | 3.5 log | 5.03 log | 5.51 log | 5.00 log | No viruses were present |  |  |  |  |  |  |
| CN1CCCC1=O [NMP, N-methyl pyrolidinone] |  |  |  |  |  |  | 8.0 μg/mg tissue | 3.4 μg/mg tissue | 14.7 μg/mg tissue | 7.9 μg/mg tissue | 111.9 μg/mg tissue | 55.2 μg/mg tissue |
